Source: ChEMBL document CHEMBL3621146, “Design of Potent and Orally Active GPR119 Agonists for the Treatment of Type II Diabetes” (ACS Med Chem Lett, 2015)
≈ marks a conversion by molar mass, not a printed value.

Key:
[1] = Lipophilicity, logD of the compound at pH 7 by HPLC method; format: physicochemical; conditions: buffer
[2] = target: T1, Glucose-dependent insulinotropic receptor (Mus musculus) (UniProt Q7TQP3); test: Agonist activity at mouse GPR119 by cAMP assay relative to control; format: functional; set-up: concentration or dose not given beside the values
T1 sequence (whole entry): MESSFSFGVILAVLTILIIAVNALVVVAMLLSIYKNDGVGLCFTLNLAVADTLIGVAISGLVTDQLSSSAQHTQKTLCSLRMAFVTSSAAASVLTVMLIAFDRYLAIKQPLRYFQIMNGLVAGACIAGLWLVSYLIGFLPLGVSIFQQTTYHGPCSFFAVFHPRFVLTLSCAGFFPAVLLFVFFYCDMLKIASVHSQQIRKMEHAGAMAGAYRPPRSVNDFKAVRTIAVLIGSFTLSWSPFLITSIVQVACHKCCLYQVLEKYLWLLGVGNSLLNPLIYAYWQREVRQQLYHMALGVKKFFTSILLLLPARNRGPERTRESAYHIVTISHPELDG

[3] = test system: Rattus norvegicus; test: Unbound volume of distribution in Wistar Han rat at 0.5 mg/kg, iv LC-MS/MS method; format: ADME, organism-based; conditions: in vivo
[4] = Intrinsic clearance in rat liver microsomes; format: ADME; conditions: read-out: CLH
[5] = target: T2, Glucose-dependent insulinotropic receptor (Homo sapiens, UniProt Q8TDV5); test: Agonist activity at human GPR119 expressed in CHO cells by cAMP assay; format: functional, cell-based
T2 sequence (Q8TDV5 whole entry): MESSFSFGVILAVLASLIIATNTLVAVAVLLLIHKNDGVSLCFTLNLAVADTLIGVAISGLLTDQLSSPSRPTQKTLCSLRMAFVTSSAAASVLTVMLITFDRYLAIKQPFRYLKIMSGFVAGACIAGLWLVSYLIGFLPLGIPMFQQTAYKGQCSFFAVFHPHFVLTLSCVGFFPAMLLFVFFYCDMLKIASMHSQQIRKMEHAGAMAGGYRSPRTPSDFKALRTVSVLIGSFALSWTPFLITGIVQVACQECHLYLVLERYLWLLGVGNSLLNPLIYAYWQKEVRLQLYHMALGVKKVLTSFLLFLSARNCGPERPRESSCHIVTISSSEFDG

[6] = Fraction unbound in rat plasma; format: ADME, cell-free
[7] = Clearance in Wistar Han rat at 0.5 mg/kg, iv LC-MS/MS method; format: ADME, organism-based; conditions: in vivo
[8] = target: T3, Glucose-dependent insulinotropic receptor (Mus musculus, UniProt Q7TQP3); test: Agonist activity at mouse GPR119 by cAMP assay; format: functional
T3 sequence (Q7TQP3 whole entry): T1 sequence (whole entry)

[9] = Volume of distribution in Wistar Han rat at 0.5 mg/kg, iv LC-MS/MS method; format: ADME, organism-based; conditions: Wistar Han, in vivo
[10] = target: T4, Glucose-dependent insulinotropic receptor (Homo sapiens) (UniProt Q8TDV5); test: Agonist activity at human GPR119 by cAMP assay relative to control; format: functional; set-up: concentration or dose not given beside the values
T4 sequence (whole entry): T2 sequence (Q8TDV5 whole entry)

[11] = Half life in Wistar Han rat at 0.5 mg/kg, iv LC-MS/MS method; format: ADME, organism-based; conditions: Wistar Han, in vivo
[12] = Fraction unbound in human plasma; format: ADME, cell-free
[13] = Drug level in mouse blood at 3 mg/kg after 90 mins; format: ADME, organism-based; conditions: whole blood, read-out: Drug uptake
[14] = Oral bioavailability in Beagle dog; format: ADME, organism-based, Canis lupus familiaris; conditions: in vivo
[15] = Half life in rhesus monkey; format: ADME, organism-based, Macaca mulatta; conditions: in vivo
[16] = Oral bioavailability in rhesus monkey; format: ADME, organism-based, Macaca mulatta; conditions: in vivo
[17] = Fraction unbound in dog plasma; format: ADME, cell-free, Canis lupus familiaris
[18] = Intrinsic clearance in human liver microsomes; format: ADME; conditions: read-out: CLH
[19] = Drug level in mouse blood at 0.3 mg/kg after 90 mins; format: ADME, organism-based; conditions: whole blood, read-out: Drug uptake
[20] = test system: Mus musculus; test: Reduction in blood glucose excursion in po dosed C57BL/6 Tac mouse by OGTT method; format: functional, organism-based
[21] = Drug level in mouse blood at 10 mg/kg after 90 mins; format: ADME, organism-based; conditions: whole blood, read-out: Drug uptake
[22] = Half life in Beagle dog; format: ADME, organism-based, Canis lupus familiaris; conditions: in vivo
[23] = Drug level in mouse blood at 1 mg/kg after 90 mins; format: ADME, organism-based; conditions: whole blood, read-out: Drug uptake
[24] = Solubility in FaSSIF; format: physicochemical; conditions: simulated gi fluid
[25] = species on record: Cavia porcellus; test: Toxicity in guinea pig assessed as effect on cardiovascular parameters at 64 times over target clinical exposure level; format: organism-based, Heart; conditions: in vivo
[26] = Oral bioavailability in Wistar Han rat; format: ADME, organism-based; conditions: in vivo
[27] = Plasma clearance in Wistar Han rat at 0.5 mg/kg, iv LC-MS/MS method; format: ADME, organism-based
[28] = Plasma clearance in Beagle dog; format: ADME, organism-based, Canis lupus familiaris
[29] = Fraction unbound in rhesus monkey plasma; format: ADME, cell-free, Macaca mulatta
[30] = test system: Mus musculus; test: Reduction in blood glucose excursion in po dosed C57BL/6 Tac mouse assessed as minimal dose for maximum efficacy by OGTT method; format: functional; conditions: read-out: MED
[31] = Solubility in SGF; format: physicochemical
[32] = target: T5, Nuclear receptor subfamily 1 group I member 2 (Homo sapiens, UniProt O75469); test: Activation of human PXR relative to control; format: ADME
T5 sequence (O75469 whole entry): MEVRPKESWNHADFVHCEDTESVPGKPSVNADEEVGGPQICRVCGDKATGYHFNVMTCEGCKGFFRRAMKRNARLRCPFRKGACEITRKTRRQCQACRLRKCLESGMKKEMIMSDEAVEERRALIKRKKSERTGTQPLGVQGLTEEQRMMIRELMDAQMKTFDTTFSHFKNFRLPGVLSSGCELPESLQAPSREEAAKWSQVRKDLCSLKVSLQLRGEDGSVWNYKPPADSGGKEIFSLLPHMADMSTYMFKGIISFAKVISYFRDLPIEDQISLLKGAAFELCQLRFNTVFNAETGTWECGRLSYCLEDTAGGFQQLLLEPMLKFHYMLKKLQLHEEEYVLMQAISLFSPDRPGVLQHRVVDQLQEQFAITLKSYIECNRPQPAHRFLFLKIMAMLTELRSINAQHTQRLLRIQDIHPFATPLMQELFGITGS

[33] = Plasma clearance in rhesus monkey; format: ADME, organism-based, Macaca mulatta
[34] = Solubility in PEG200; format: physicochemical
[35] = Solubility in PEG400; format: physicochemical
[36] = Kinetic solubility in FaSSIF at pH 6.5; format: physicochemical; conditions: FaSSIF, read-out: Kinetic_solubility
[37] = Intrinsic clearance in dog liver microsomes; format: ADME, Canis lupus familiaris; conditions: read-out: CLH
[38] = target: Cytochrome P450 3A4 (Homo sapiens, UniProt P08684); test: Inhibition of CYP3A4 (unknown origin)
[39] = Volume of distribution in rhesus monkey; format: ADME, organism-based, Macaca mulatta; conditions: in vivo
[40] = Volume of distribution in Beagle dog; format: ADME, organism-based, Canis lupus familiaris; conditions: in vivo
[41] = target: T5, Nuclear receptor subfamily 1 group I member 2; test: Activation of human PXR; format: ADME
[42] = Intrinsic clearance in monkey liver microsomes; format: ADME, Macaca mulatta; conditions: rhesus monkey, read-out: CLH

Chain of Cytochrome P450 3A4 (P08684 whole entry): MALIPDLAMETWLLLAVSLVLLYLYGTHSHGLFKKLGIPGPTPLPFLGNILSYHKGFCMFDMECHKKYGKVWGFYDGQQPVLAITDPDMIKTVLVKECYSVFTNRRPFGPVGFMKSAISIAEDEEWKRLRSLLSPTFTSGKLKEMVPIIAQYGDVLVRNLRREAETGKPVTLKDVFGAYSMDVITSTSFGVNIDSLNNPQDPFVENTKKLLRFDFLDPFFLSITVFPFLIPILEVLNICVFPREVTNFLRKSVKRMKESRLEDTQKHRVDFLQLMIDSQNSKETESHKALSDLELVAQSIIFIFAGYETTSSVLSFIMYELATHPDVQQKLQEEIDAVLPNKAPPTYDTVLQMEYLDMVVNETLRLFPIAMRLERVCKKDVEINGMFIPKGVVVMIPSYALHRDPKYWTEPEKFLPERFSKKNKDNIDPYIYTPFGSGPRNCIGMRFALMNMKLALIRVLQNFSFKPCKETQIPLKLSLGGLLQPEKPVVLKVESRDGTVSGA

Molecule `CS(=O)(=O)c1ccc(COC[C@@H]2C[C@@H]2C2CCN(c3ncc(Cl)cn3)CC2)nc1` has a logD [1] of 3.7, an Activity [2] of 56% and a Vdu [3] of 81 L/kg. It also gave a CLint scaled [4] of 553 mL/min/kg, an EC50 [5] of 8.7 nM and a fraction unbound [6] of 0.016. For the same molecule, the clearance [7] was 9 mL/min/kg, the EC50 [8] was 3.6 nM and the Vd [9] was 1.3 L/kg. The Activity [10] was 53% and the half-life [11] was 1.8 h.
In the case of `COCc1cnc(N2CCC([C@H]3C[C@H]3COCc3ccc(S(C)(=O)=O)cc3F)CC2)nc1`, the fraction unbound [12] is reported as 0.049, the concentration at 1.5 h [13] is reported as 302 nM and the bioavailability [14] is reported as 60%. The half-life [15] was 2.3 h, the bioavailability [16] was 5% and the fraction unbound [17] was 0.055. It also gave a CLint scaled [18] of 42 mL/min/kg, a logD [1] of 3.5 and a concentration at 1.5 h [19] of 18 nM. For the same molecule, the Activity [20] was “Dose-dependent effect”, the Activity [2] was 97% and the concentration at 1.5 h [21] was 622 nM. It also gave a half-life [22] of 17 h, a Vdu [3] of 54 L/kg and a CLint scaled [4] of 1100 mL/min/kg. The concentration at 1.5 h [23] was 86 nM, the EC50 [5] was 2.1 nM and the fraction unbound [6] was 0.041. The solubility [24] was 56 µg/mL (≈ 121 µM), the Activity [25] was “Non-toxic” and the EC50 [8] was 1.9 nM. For the same molecule, the bioavailability [26] was 27%, the clearance [27] was 41 mL/min/kg and the Vd [9] was 2.2 L/kg. For the same molecule, the clearance [28] was 6 mL/min/kg, the Activity [10] was 88% and the fraction unbound [29] was 0.032. It also gave a minimal effective dose [30] of 3 mg/kg, a solubility [31] of 870 µg/mL (≈ 1880 µM) and an Activity [32] of 39%. It also gave a half-life [11] of 1 h, a clearance [33] of 16 mL/min/kg and a solubility [34] of 129000 µg/mL (≈ 278000 µM). The solubility [35] was 325000 µg/mL (≈ 701000 µM), the solubility kinetic [36] was 161 µM (≈ 74.6 µg/mL) and the CLint scaled [37] was 60 mL/min/kg. It also gave an IC50 [38] of 40000 nM, a Vd [39] of 2 L/kg and a Vd [40] of 6.5 L/kg. It also gave an EC50 [41] of over 30000 nM and a CLint scaled [42] of 319 mL/min/kg.
